“And” between values parts separate entries of the source, which are not always exact repeats. Equal entries are not always repeated.
Biological target: T1, 5HT6 human recombinant receptor (Homo sapiens, UniProt P50406)
T1 construct: purchased Receptor Biology; host or cells: HEK-293 cell membranes
Experiment: Binding with serotonin receptor 5HT6 ([3H]-LSD radioligand, HEK-293 cell membranes)
Conditions: [3H]-LSD 2.7 nM, HEK-293 membranes; for inhibition at 0.01 µM: 10 nM compound; for inhibition at 0.01 µM / inhibition at 0.1 µM: 60 min, 37° C.; for inhibition at 0.1 µM: 100 nM compound; for Ki: non-linear regression EBDA/LIGAND
Description: Biological Assays Binding with Serotonin Receptor 5HT6
Cell membranes of HEK-293 cells expressing the 5HT6 human recombinant receptor were supplied by Receptor Biology. In said membranes the receptor concentration is 2.18 pmol/mg protein and the protein concentration is 9.17 mg/ml. The experimental protocol follows the method of B. L. Roth et al. [B. L. Roth, S. C. Craigo, M. S. Choudhary, A. Uluer, F. J. Monsma, Y. Shen, H. Y. Meltzer, D. R. Sibley: Binding of Typical and Atypical Antipsychotic Agents to 5-Hydroxytryptamine-6 and Hydroxytriptamine-7 Receptors. The Journal of Pharmacology and Experimental Therapeutics, 1994, 268, 1403] with slight changes. The commercial membrane is diluted (1:40 dilution) with the binding buffer: 50 mM Tris-HCl, 10 mM MgCl2, 0.5 mM EDTA (pH 7.4). The radioligand used is [^3H]-LSD at a concentration of 2.7 nM with a final volume of 200 μl. incubation is initiated by adding 100 μl of membrane suspension, (≈22.9 μg membrane protein), and is prolonged for 60 minutes at a temperature of 37° C. The incubation is ended by fast filtration in a Brandel Cell Harvester through fiber glass filters made by Schleicher & Schuell GF 3362 pretreated with a solution of polyethylenimine at 0.5%. The filters are washed three times with three milliliters of buffer Tris-HCl 50 mM pH 7.4. The filters are transferred to flasks and 5 ml of Ecoscint H liquid scintillation cocktail are added to each flask. The flasks are allowed to reach equilibrium for several hours before counting with a Wallac Winspectral 1414 scintillation counter. Non-specific binding is determined in the presence of 100 μM of serotonin. Tests were made in triplicate. The inhibition constants (Ki, nM) were calculated by non-linear regression analysis using the program EBDA/LIGAND [Munson and Rodbard, Analytical Biochemistry, 1980, 107, 220].

T1 sequence (P50406 whole entry): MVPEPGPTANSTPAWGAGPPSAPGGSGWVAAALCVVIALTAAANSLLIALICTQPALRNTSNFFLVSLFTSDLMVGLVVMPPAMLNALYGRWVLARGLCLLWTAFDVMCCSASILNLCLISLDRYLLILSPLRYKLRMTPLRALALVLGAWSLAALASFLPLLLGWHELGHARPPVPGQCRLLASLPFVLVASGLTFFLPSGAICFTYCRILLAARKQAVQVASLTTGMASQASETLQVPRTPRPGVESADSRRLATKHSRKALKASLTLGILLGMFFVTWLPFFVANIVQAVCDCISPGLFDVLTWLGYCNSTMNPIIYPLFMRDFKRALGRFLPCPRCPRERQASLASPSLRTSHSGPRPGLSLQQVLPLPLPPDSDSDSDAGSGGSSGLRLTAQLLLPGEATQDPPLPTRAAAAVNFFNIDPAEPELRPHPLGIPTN

Compound | inhibition at 0.01 µM [%] | inhibition at 0.1 µM [%] | Ki
CCNCCc1c[nH]c2ccc(NS(=O)(=O)c3sc4ccc(Cl)cc4c3C)cc12 [Example 1, 5-Chloro-3-methyl-benzo[b]thiophene-2-sulfonic acid [3-(2-ethylamino-ethyl)-1H-indol-5-yl]-amide] | 82.7 | 91.4 | 0.67 nM
CNCCc1c[nH]c2ccc(NS(=O)(=O)c3sc4ccc(Cl)cc4c3C)cc12 [Example 2, 5-Chloro-3-methyl-benzo[b]thiophene-2-sulfonic acid [3-(2-methylamino-ethyl)-1H-indol-5-yl]-amide] | 62.5 | 80.3 | 2 nM
CNCCc1c[nH]c2ccc(NS(=O)(=O)c3c(Cl)nc4sccn34)cc12 [Example 3, 6-Chloro-imidazo[2,1-b]thiazole-5-sulfonic acid [3-(2-methylamino-ethyl)-1H-indol-5-yl]-amide] | 47.3 | 71.8 | 4.7 nM and 3.2 nM
CCNCCc1c[nH]c2ccc(NS(=O)(=O)c3c(Cl)nc4sccn34)cc12 [Example 4, 6-Chloro-imidazo[2,1-b]thiazole-5-sulfonic acid [3-(2-ethylamino-ethyl)-1H-indol-5-yl]-amide] | 61.8 | 81.7 | 6.4 ± 1 nM
Cc1c(S(=O)(=O)Nc2ccc3[nH]cc(CCN)c3c2)sc2ccc(Cl)cc12 [Example 5, 5-Chloro-3-methyl-benzo[b]thiophene-2-sulfonic acid [3-(2-amino-ethyl)-1H-indol-5-yl]-amide] | 63.5 | 85 | 11.7 nM
NCCc1c[nH]c2ccc(NS(=O)(=O)c3c(Cl)nc4sccn34)cc12 [Example 6, 6-Chloro-imidazo[2,1-b]thiazole-5-sulfonic acid [3-(2-amino-ethyl)-1H-indol-5-yl]-amide] | 75.7 | 92.3 | 3.6 ± 1.4 nM

— patent US7960568B2, “Heterocyclyl-substituted sulfonamides for the treatment of cognitive or food ingestion related disorders” (Laboratorios Del Dr. Esteve, S.A., priority 2007, dated 2011)
